Measured values reported in patent publication US7772260B2, “Imidazo[2,1-b]-1,3,4-thiadiazole sulfonamides” (Aegera Therapeutics Inc., priority 2001, dated 2010).
Counter-ions that a name gives are not always drawn. Like-named read-outs stand apart in the source and are kept apart here.

Columns and labels:
[1] = system: SCG neurons; test: Protection of SCG neurons from anti-NGF killing; format: cell-based, Sprague Dawley rats; settings: anti-NGF antibody, serum and NGF free 48 hours, Alamar Blue, +/−1 uM, read-out: IC(50), rescue from anti-NGF killing of SCG neurons
Protocol: Neurotrophins are critical to the growth, development, and survival of small fiber neurons of the PNS. SCG neurons are neurons of the PNS that undergo apoptosis upon NGF withdrawal. In a typical experiment SCG neurons are cultured in the presence of NGF, which induces survival and neurite out-growth. After 5 days the NGF is removed by either the addition of anti-NGF polyclonal antibody (Sigma) or by repeated washings (4 times) with NGF free media, resulting in the apoptosis of up to 90% of the neurons after 48 hours, as measured by MTS staining.
After 4 days the cells were treated with anti-NGF antibody (Sigma). At this time compound was added and the cells were maintained serum and NGF free for 48 hours, at which time viability was assessed using Alamar Blue (Medicorp) staining.

[2] = system: SCG neurons; test: cells; format: cell-based, Sprague Dawley rats
Protocol: Taxol™ is regularly used in breast cancer chemotherapy. In cancer cells Taxol™ binds to the cyto-skeletal protein tubulin, thereby inhibiting normal microtubular assembly and inducing cellular apoptosis. Despite its potency as an anti-tumour agent, Taxol™ is also toxic to neurons, inducing dose limiting peripheral neuropathies. The addition of Taxol™ (100 ng/mL) to cultured SCG neurons induces the degradation or loss of upwards of 80% of the neurons.
FIG. 1 illustrates the protection provided by compound 1 (referred to here as AEG3482) against Taxol™ induced killing. PI Sprague Dawley rat SCG neurons were cultured and incubated with NGF (50 ng/mL) for 5 days.

[3] = biological target: CA II (Homo sapiens, UniProt P00918); test: CA II inhibition; format: biochemical
Protocol: CA II inhabition was measured using the protocol described by Pocker, Y.'Stone, J. Biochemistry 1967, 6, 668.

[4] = Rattus norvegicus, Neuron, Taxol™ (50 ng/mL), viability 48 hours later, MTS, read-out: IC(50), protection of SCG neurons from Taxol killing
[5] = read-out: IC(50), CA II inhibition
[6] = Rattus norvegicus, Neuron, 48 h

Row | Compound | IC50 ([1]; Rattus norvegicus, Neuron) [µM] | IC50 [2, 4] [µM] | further results
1 | 6-(4-bromophenoxyphenyl)imidazo[2,1-b]-1,3,4-thiadiazole-2-sulfonamide [Compound 95] |  |  | IC50 [1]: 7 µM; IC50 ([2]; Taxol™ (50 ng/mL), viability 48 hours later, MTS, read-out: IC(50), protection of SCG neurons from Taxol killing): 3 µM
2 | NS(=O)(=O)c1nn2cc(-c3ccccc3F)nc2s1 [Compound 2, 6-(2-Fluorophenyl)imidazo[2,1-b]-1,3,4-thiadiazole-2-sulfonamide] | 20 |  | 
3 | NS(=O)(=O)c1nn2cc(-c3cccc(F)c3)nc2s1 [Compound 3, 6-(3-Fluorophenyl)imidazo[2,1-b]-1,3,4-thiadiazole-2-sulfonamide] | 10 |  | 
4 | NS(=O)(=O)c1nn2cc(-c3c(F)c(F)c(N4CCOCC4)c(F)c3F)nc2s1 [Compound 9, 6-(4-Morpholino-2,3,5,6-tetrafluorophenyl)imidazo[2,1-b]-1,3,4-thiadiazole-2-sulfonamide] | 8 |  | 
5 | NS(=O)(=O)c1nn2cc(-c3ccc4c(c3)OCCCO4)nc2s1 [Compound 21, 6-(3,4-dihydro-2H-1,5-benzodioxepin-7-yl)imidazo[2,1-b]-1,3,4-thiadiazole-2-sulfonamide] | 22 | 7 | IC50 [3, 5]: 5.32 µM
6 | NS(=O)(=O)c1nn2cc(-c3ccc4c(c3)OC3(CCCCC3)O4)nc2s1 [Compound 23, 6-(2-spiro(cyclohexyl)benzo-1,3-dioxol-5-yl)imidazo[2,1,-b]-1,3,4-thiadiazole-2-sulfonamide] | 25 |  | 
7 | NS(=O)(=O)c1nn2cc(-c3ccc(OCCO)cc3)nc2s1 [Compound 26] | 23 | 7 | 
8 | COc1cc(-c2cn3nc(S(N)(=O)=O)sc3n2)ccc1OCCO [Compound 34] | > 30 |  | 
9 | COc1cc(-c2cn3nc(S(N)(=O)=O)sc3n2)ccc1OCCOCc1ccccc1 [Compound 35] | > 30 |  | 
10 | COc1cc(-c2cn3nc(S(N)(=O)=O)sc3n2)ccc1OCCCOCc1ccccc1 [Compound 36] | 17 |  | 
11 | CCCCCc1ccc(-c2cn3nc(S(N)(=O)=O)sc3n2)cc1 [Compound 46, 6-(4-Pentylphenyl)imidazo[2,1-b]-1,3,4-thiadiazole-2-sulfonamide] |  | 7 | IC50 [3, 5]: 0.601 µM
12 | Cc1ccc(-c2cn3nc(S(N)(=O)=O)sc3n2)cc1 [Compound 47, 6-(4-Methylphenyl)imidazo[2,1-b]-1,3,4-thiadiazole-2-sulfonamide] |  | 6 | IC50 [3, 5]: 0.361 µM
13 | Cc1ccc(-c2cn3nc(S(N)(=O)=O)sc3n2)c(C)c1 [Compound 48, 6-(2,4-dimethylphenyl)imidazo[2,1-b]-1,3,4-thiadiazole-2-sulfonamide] |  | 5 | IC50 [3, 5]: 0.288 µM
14 | CC(C)(C)c1ccc(-c2cn3nc(S(N)(=O)=O)sc3n2)cc1 [Compound 49, 6-(4-tert-butylphenyl)imidazo[2,1-b]-1,3,4-thiadiazole-2-sulfonamide] |  | 5 | IC50 [3, 5]: 0.466 µM
15 | CC(C)(C)c1cc(-c2cn3nc(S(N)(=O)=O)sc3n2)c2c(c1)C(C)(C)CC2 [Compound 50] |  | 7 | IC50 [3, 5]: 0.938 µM
16 | NS(=O)(=O)c1nn2cc(-c3ccc(-c4ccc5c(c4)OCO5)cc3)nc2s1 [Compound 79] | 7 |  | 
17 | NS(=O)(=O)c1nn2cc(-c3ccc(-c4cccs4)cc3)nc2s1 [Compound 84, 6-(thiophen-2-yl-phenyl)imidazo[2,1-b]-1,3,4-thiadiazole-2-sulfonamide] | > 30 |  | 
18 | NS(=O)(=O)c1nn2cc(-c3ccc(-c4ccsc4)cc3)nc2s1 [Compound 85, 6-(thiophen-3-yl-phenyl)imidazo[2,1-b]-1,3,4-thiadiazole-2-sulfonamide] | > 30 |  | 

Row | Compound | IC50 ([1]; Rattus norvegicus, Neuron) [µM] | IC50 [2, 4] [µM] | further results
19 | COc1ccc(-c2cccc(-c3cn4nc(S(N)(=O)=O)sc4n3)c2)cc1 [Compound 86, 6-(4′methoxybiphen-3-yl)imidazo[2,1-b]-1,3,4-thiadiazole-2-sulfonamide] | 17 |  | 
20 | NS(=O)(=O)c1nn2cc(-c3ccc(Oc4ccc(F)cc4)cc3)nc2s1 [Compound 88] | 10 |  | 
21 | NS(=O)(=O)c1nn2cc(-c3ccc(Oc4ccc(F)c(F)c4)cc3)nc2s1 [Compound 89, 6-(4-(3,4-difluorophenoxy)phenyl)imidazo[2,1-b]-1,3,4-thiadiazole-2-sulfonamide] | 10 |  | 
22 | NS(=O)(=O)c1nn2cc(-c3ccc(Oc4ccc(Cl)cc4)cc3)nc2s1 [Compound 91, 6-(4-chlorophenoxyphenyl)imidazo[2,1-b]-1,3,4-thiadiazole-2-sulfonamide] | 7 |  | 
23 | NS(=O)(=O)c1nn2cc(-c3ccc(Oc4ccc(Cl)c(Cl)c4)cc3)nc2s1 [Compound 92, 6-(3,4-dichlorophenoxyphenyl)imidazo[2,1-b]-1,3,4-thiadiazole-2-sulfonamide] | 7 |  | 
24 | NS(=O)(=O)c1nn2cc(-c3ccc(Oc4ccccc4Br)cc3)nc2s1 [Compound 93, 6-(2-bromophenoxyphenyl)imidazo[2,1-b]-1,3,4-thiadiazole-2-sulfonamide] | 7 |  | 
25 | NS(=O)(=O)c1nn2cc(-c3ccc(Oc4cccc(Br)c4)cc3)nc2s1 [Compound 94, 6-(3-bromophenoxyphenyl)imidazo[2,1-b]-1,3,4-thiadiazole-2-sulfonamide] | 10 |  | 
26 | CN(C)c1cccc(Oc2ccc(-c3cn4nc(S(N)(=O)=O)sc4n3)cc2)c1 [Compound 96, 6-(3-dimethylaminophenoxyphenyl)imidazo[2,1-b]-1,3,4-thiadiazole-2-sulfonamide] | 20 |  | 
27 | CC(C)c1ccc(Oc2ccc(-c3cn4nc(S(N)(=O)=O)sc4n3)cc2)cc1 [Compound 97, 6-(4-(4-iso-propylphenoxy)phenyl)imidazo[2,1-b]-1,3,4-thiadiazole-2-sulfonamide] | 7 |  | 
28 | COc1ccc(Oc2ccc(-c3cn4nc(S(N)(=O)=O)sc4n3)cc2)cc1 [Compound 98, 6-(4-(4-methoxyphenoxy)phenyl)imidazo[2,1-b]-1,3,4-thiadiazole-2-sulfonamide] | 17 |  | 
29 | NS(=O)(=O)c1nn2cc(-c3ccccn3)nc2s1 [Compound 105, 6-(2-Pyridyl)imidazo[2,1-b]-1,3,4-thiadiazole-2-sulfonamide] |  | 7 | IC50 [3, 5]: 0.15 µM
30 | NS(=O)(=O)c1nn2cc(-c3ccccn3)nc2s1 [Compound 106, 6-(2-Pyridyl)imidazo[2,1-b]-1,3,4-thiadiazole-2-sulfonamide HCl] | 7 |  | 
31 | CNS(=O)(=O)c1nn2cc(-c3ccccc3)nc2s1 [Compound 137, 6-Phenyl-imidazo[2,1-b]-1,3,4-thiadiazole-2-N-methylsulfonamide] |  | 10 | IC50 ([2]; Rattus norvegicus, Neuron, read-out: IC(50) against Taxol killing of SCGs): 7 µM; decrease in CAII activity relative to compound 1 ([3]; compound 137 versus compound 1): 100 fold; IC50 ([3]; read-out: CAII(50) / CAII IC(50)): 2.06 µM
32 | CN(C)S(=O)(=O)c1nn2cc(-c3ccccc3)nc2s1 [Compound 139, 6-Phenyl-imidazo[2,1-b]-1,3,4-thiadiazole-2-N,N-dimethylsulfonamide] |  | 10 | IC50 [3, 5]: 11.3 µM
33 | CCCCN(CCCC)S(=O)(=O)c1nn2cc(-c3cccc(OC)c3)nc2s1 [Compound 142, 6-(3-Methoxyphenyl)imidazo[2,1-b]-1,3,4-thiadiazole-2-N,N-dibutylsulfonamide] |  | > 30 | IC50 [3, 5]: 60.3 µM
34 | COc1cccc(-c2ccc(-c3cn4nc(S(N)(=O)=O)sc4n3)cc2)c1 [Compound 149, 6-(3′-methoxybiphen-4-yl)imidazo[2,1-b]-1,3,4-thiadiazole-2-sulfonamide sodium salt] |  |  | IC50 [1, 6]: 7 µM
35 | NS(=O)(=O)c1nn2cc(-c3ccc(-c4cccc(C(F)(F)F)c4)cc3)nc2s1 [Compound 150, 6-(3′-trifluoromethylbiphen-4-yl)imidazo[2,1-b]-1,3,4-thiadiazole-2-sulfonamide sodium salt] |  |  | IC50 [1, 6]: 7 µM
